As usually defined, the EC50 is the concentration at which the effect is half-maximal.

Some results are limits rather than exact numbers.

Assay [1] concerns the target Human CB1R (Cannabinoid receptor 1) (Homo sapiens, UniProt P21554). The assay is described as follows: CB-1 in vitro cAMP (HTRF) assay. The class given is cell-based. The settings on record: HEK cells, cAMP HTRF, 250 nM forskolin; mean where tested more than once; read-out: CB1 HEK_cAMP EC50. Put shortly: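 Intracellular cAMP from HTRF ratio (d2-cAMP vs Eu-cryptate anti-cAMP), converted to nM via per-plate standards, in stable human CB1R HEK-293 cells.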
For orientation: In TR-FRET formats the signal depends on donor and acceptor labels being close together.

Assay [2] has as its target Human CB2R (Cannabinoid receptor 2) (Homo sapiens, UniProt P34972). The assay is described as follows: CB-2 in vitro cAMP (HTRF) assay. The note with it: HEK cells, cAMP HTRF, 250 nM forskolin; mean where tested more than once; read-out: CB2 HEK_cAMP EC50. In kind it is cell-based. Put shortly:
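Competitive HTRF read-out (d2-labelled cAMP vs cryptate antibody) quantifies cAMP in stably transfected HEK-293 cells, seeded the day before at 4E5 cells/mL. Stimulation buffer: HBSS, 5 mM HEPES, 0.1% BSA, 0.5 mM IBMX; forskolin prepared at 1.5 μM in buffer; compounds serially diluted 1/3 in DMSO.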

Chain of Human CB2R (Cannabinoid receptor 2) (P34972 whole entry): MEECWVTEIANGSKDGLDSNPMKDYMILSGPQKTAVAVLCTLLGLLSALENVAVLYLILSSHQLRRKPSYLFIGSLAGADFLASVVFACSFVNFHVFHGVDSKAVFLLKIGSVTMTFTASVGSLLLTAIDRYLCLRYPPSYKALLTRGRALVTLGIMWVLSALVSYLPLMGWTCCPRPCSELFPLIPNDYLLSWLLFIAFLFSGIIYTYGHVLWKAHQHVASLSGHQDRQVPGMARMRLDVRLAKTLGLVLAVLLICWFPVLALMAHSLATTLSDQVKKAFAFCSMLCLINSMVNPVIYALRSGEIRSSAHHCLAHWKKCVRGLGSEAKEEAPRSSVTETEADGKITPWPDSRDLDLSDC
Chain of Human CB1R (Cannabinoid receptor 1) (P21554 whole entry): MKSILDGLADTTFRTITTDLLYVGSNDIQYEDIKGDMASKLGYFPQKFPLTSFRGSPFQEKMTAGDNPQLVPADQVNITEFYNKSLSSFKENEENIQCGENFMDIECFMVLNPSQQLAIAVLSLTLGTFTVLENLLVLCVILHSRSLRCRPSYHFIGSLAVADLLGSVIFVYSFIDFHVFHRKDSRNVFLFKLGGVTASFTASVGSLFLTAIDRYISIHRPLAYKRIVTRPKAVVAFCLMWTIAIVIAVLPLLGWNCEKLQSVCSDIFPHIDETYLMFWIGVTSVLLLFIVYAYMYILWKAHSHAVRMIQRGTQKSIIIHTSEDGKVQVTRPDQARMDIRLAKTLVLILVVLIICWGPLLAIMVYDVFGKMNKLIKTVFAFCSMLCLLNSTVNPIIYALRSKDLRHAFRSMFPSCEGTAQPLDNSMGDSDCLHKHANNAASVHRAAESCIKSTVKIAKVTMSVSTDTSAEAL

For `Clc1ccc(C(c2ccc3nc(-c4ccco4)n(-c4cccc(Cl)c4)c3c2)c2nccs2)cc1` (stereo not shown) [Example 377], the EC50 in assay [1] and in assay [2] was > 10000 nM each time.

As to `O=S(=O)(N1CCC(n2c(C3CC3)nc3ccc(C(c4ccc(Cl)cc4)c4nccs4)cc32)CC1)C(F)(F)F` (stereo not shown) [Example 384], the results for the 50% effective concentration (EC50) in assay [1] and in assay [2] were 12 nM and > 10000 nM, respectively.

For the molecule `O=S(=O)(N1CCC(n2c(-c3ccccn3)nc3ccc(C(c4ccc(Cl)cc4)c4nccs4)cc32)CC1)C(F)(F)F` (stereo not shown) [Example 385], the EC50 was 524 nM in assay [1] and > 10000 nM in assay [2].

With `Cc1nc2ccc(C(c3ccc(Cl)cc3)c3nccs3)cc2n1C1CCN(S(=O)(=O)C(F)(F)F)CC1` (stereo not shown) [Example 386], the EC50 is 22 nM in assay [1] and > 10000 nM in assay [2].

Regarding `CCOC(=O)c1nc2ccc(C(c3ccc(Cl)cc3)c3nccs3)cc2n1C1CCN(S(=O)(=O)C(F)(F)F)CC1` (stereo not shown) [Example 387], the EC50 was 551 nM in assay [1] and > 10000 nM in assay [2].

In the case of `O=S(=O)(N1CCC(n2c(-c3ccncc3)nc3ccc(C(c4ccc(Cl)cc4)c4nccs4)cc32)CC1)C(F)(F)F` (stereo not shown) [Example 390], the EC50 was 242 nM in assay [1] and > 10000 nM in assay [2].

Consider `O=S(=O)(N1CCC(n2c(C3CCC3)nc3ccc(C(c4ccc(Cl)cc4)c4nccs4)cc32)CC1)C(F)(F)F` (stereo not shown) [Example 391], for which the figures for the EC50 in assay [1] and in assay [2] were 60 nM and > 10000 nM, respectively.

For the molecule `O=S(=O)(N1CCC(n2c(-c3cccnc3)nc3ccc(C(c4ccc(Cl)cc4)c4nccs4)cc32)CC1)C(F)(F)F` (stereo not shown) [Example 393], the results for the EC50 in assay [1] and in assay [2] were 28 nM and 63 nM, respectively.

For the molecule `O=S(=O)(N1CCC(n2c(-c3ccc(Cl)cc3)nc3ccc(C(c4ccc(Cl)cc4)c4nccs4)cc32)CC1)C(F)(F)F` (stereo not shown) [Example 394], the values for the EC50 in assay [1] and in assay [2] were 4840 nM and > 10000 nM, respectively.

For the molecule `O=S(=O)(N1CCC(n2c(C3CCCC3)nc3ccc(C(c4ccc(Cl)cc4)c4nccs4)cc32)CC1)C(F)(F)F` (stereo not shown) [Example 395], the EC50 in assay [1] was 137 nM; in assay [2], > 10000 nM.

`CC(C)Cc1nc2ccc(C(c3ccc(Cl)cc3)c3nccs3)cc2n1C1CCN(S(=O)(=O)C(F)(F)F)CC1` (stereo not shown) [Example 396]: the EC50 in assay [1] is 221 nM; in assay [2], 91 nM.

`CC(C)c1nc2ccc(C(c3ccc(Cl)cc3)c3nccs3)cc2n1C1CCN(S(=O)(=O)C(F)(F)F)CC1` (stereo not shown) [Example 397]: the EC50 in assay [1] and in assay [2] was > 10000 nM each time.

In the case of `O=S(=O)(N1CCC(n2cnc3ccc(C(c4ccc(Cl)cc4)c4nccs4)cc32)CC1)C(F)(F)F` (stereo not shown) [Example 398], the EC50 in assay [1] is 21 nM; in assay [2], > 10000 nM.

Take `CCCc1nc2ccc(C(c3ccc(Cl)cc3)c3nccs3)cc2n1C1CCN(S(=O)(=O)C(F)(F)F)CC1` (stereo not shown) [Example 399]: the EC50 in assay [1] was 163 nM; in assay [2], > 10000 nM.

As for `CC(c1ccc(Cl)cc1)n1c(C2CC2)nc2ccc(C(c3ccc(Cl)cc3)c3nccs3)cc21` (stereo not shown) [Example 401], the values for the EC50 in assay [1] and in assay [2] were 6020 nM and > 10000 nM, respectively.

With `CC(C)c1nc2ccc(C(c3ccc(Cl)cc3)c3nccs3)cc2n1-c1cccc(Cl)c1` (stereo not shown) [Example 402], the EC50 is 192 nM in assay [1] and > 10000 nM in assay [2].

As to `Clc1ccc(C(c2ccc3nc(C4CC4)n(Cc4ccccn4)c3c2)c2nccs2)cc1` (stereo not shown) [Example 403], the EC50 in assay [1] is 569 nM; in assay [2] it was > 10000 nM.

In the case of `Clc1ccc(C(c2ccc3nc(C4CNC4)n(CCc4cccc(Cl)c4)c3c2)c2nccs2)cc1` (stereo not shown) [Example 404], the figures for the EC50 in assay [1] and in assay [2] were 6150 nM and > 10000 nM, respectively.

On to `OC(c1ccc(Cl)cc1)(c1ccc2ncn(CCc3cccc(Cl)c3)c2c1)c1nccs1` (stereo not shown) [Example 405], for which the EC50 in assay [1] came to 4490 nM; in assay [2], 3350 nM.

Regarding `CC(C)(C)OC(=O)N1CC(c2nc3ccc(C(c4ccc(Cl)cc4)c4nccs4)cc3n2CCc2cccc(Cl)c2)C1` (stereo not shown) [Example 406], the EC50 in assay [1] is 1690 nM; in assay [2], > 10000 nM.

`CCOC(=O)N1CCC(n2c(C(C)(C)C)nc3ccc(C(c4ccc(Cl)cc4)c4nccs4)cc32)CC1` (stereo not shown) [Example 408]: the EC50 in assay [1] was 3150 nM; in assay [2], > 10000 nM.

Take `CCc1nc2ccc(C(c3ccc(Cl)cc3)c3nccs3)cc2n1CCc1cccc(Cl)c1` (stereo not shown) [Example 409]: the EC50 in assay [1] was 47.8 nM; in assay [2], > 10000 nM.

Consider `CCCc1nc2ccc(C(c3ccc(Cl)cc3)c3nccs3)cc2n1CCc1cccc(Cl)c1` (stereo not shown) [Example 410], for which the EC50 in assay [1] was 308 nM; in assay [2] it was > 10000 nM.

With `CCOC(=O)N1CCC(n2c(C3CCCO3)nc3ccc(C(c4ccc(Cl)cc4)c4nccs4)cc32)CC1` (stereo not shown) [Example 411], the results for the EC50 in assay [1] and in assay [2] were 376 nM and > 10000 nM, respectively.

`CCOC(=O)N1CCC(n2c(C3CCOCC3)nc3ccc(C(c4ccc(Cl)cc4)c4nccs4)cc32)CC1` (stereo not shown) [Example 412]: the EC50 was 623 nM in assay [1] and > 10000 nM in assay [2].

For the molecule `CCOC(=O)c1nc2ccc(C(c3ccc(Cl)cc3)c3nccs3)cc2n1C1CCN(C(=O)OCC)CC1` (stereo not shown) [Example 413], the EC50 was 315 nM in assay [1] and > 10000 nM in assay [2].

With `CCOC(=O)N1CCC(n2c(C3CNC3)nc3ccc(C(c4ccc(Cl)cc4)c4nccs4)cc32)CC1` (stereo not shown) [Example 414], the EC50 in assay [1] was 1490 nM; in assay [2], > 10000 nM.

For the molecule `CCOC(=O)N1CCC(n2c(C(F)(F)F)nc3ccc(C(c4ccc(Cl)cc4)c4nccs4)cc32)CC1` (stereo not shown) [Example 415], the EC50 in assay [1] and in assay [2] was > 10000 nM in each case.

For `CCCc1nc2ccc(C(c3ccc(Cl)cc3)c3nccs3)cc2n1C1CCN(C(=O)OCC)CC1` (stereo not shown) [Example 416], the EC50 is 392 nM in assay [1] and > 10000 nM in assay [2].

Consider `CCOC(=O)N1CCC(n2c(C3CN(C(=O)OC(C)(C)C)C3)nc3ccc(C(c4ccc(Cl)cc4)c4nccs4)cc32)CC1` (stereo not shown) [Example 417], for which the concentration giving a half-maximal response (EC50) in assay [1] was 2540 nM; in assay [2] it was > 10000 nM.

Regarding `CCOC(=O)N1CCC(n2c(-c3ccc(Cl)cc3)nc3ccc(C(c4ccc(Cl)cc4)c4nccs4)cc32)CC1` (stereo not shown) [Example 418], the EC50 in assay [1] is 1080 nM; in assay [2] it was > 10000 nM.

`CCOC(=O)N1CCC(n2c(-c3nccs3)nc3ccc(C(c4ccc(Cl)cc4)c4nccs4)cc32)CC1` (stereo not shown) [Example 419]: the results for the EC50 in assay [1] and in assay [2] were 1180 nM and > 10000 nM, respectively.

For the molecule `CCOC(=O)N1CCC(n2c(CC(C)C)nc3ccc(C(c4ccc(Cl)cc4)c4nccs4)cc32)CC1` (stereo not shown) [Example 420], the values for the EC50 in assay [1] and in assay [2] were 231 nM and > 10000 nM, respectively.

For `CCOC(=O)N1CCC(n2c(C3CC3)nc3ccc(C(c4ccc(Cl)cc4)c4nccs4)cc32)CC1` (stereo not shown) [Example 421], the figures for the EC50 in assay [1] and in assay [2] were 112 nM and > 10000 nM, respectively.

Turning to `CCOC(=O)N1CCC(n2c(Cl)nc3ccc(C(c4ccc(Cl)cc4)c4nccs4)cc32)CC1` (stereo not shown) [Example 422], the EC50 in assay [1] is 598 nM; in assay [2] it was > 10000 nM.

On to `Clc1ccc(C(c2ccc3nc(C4CC4)n(CCc4cccc(Cl)c4)c3c2)c2nccs2)cc1` (stereo not shown) [Example 423], for which the EC50 in assay [1] is 17 nM; in assay [2], > 10000 nM.

`FC(F)(F)c1nc2ccc(C(c3ccc(Cl)cc3)c3nccs3)cc2n1CCc1cccc(Cl)c1` (stereo not shown) [Example 424]: the figures for the 50% effective concentration (EC50) in assay [1] and in assay [2] were 2320 nM and > 10000 nM, respectively.

As to `CCOC(=O)c1nc2ccc(C(c3ccc(Cl)cc3)c3nccs3)cc2n1-c1cccc(Cl)c1` (stereo not shown) [Example 429], the EC50 in assay [1] was 437 nM; in assay [2], > 10000 nM.

Source of the values: patent publication US20190031618A1, “BENZIMIDAZOLE DERIVATIVES USEFUL AS CB-1 INVERSE AGONISTS” (Janssen Pharmaceutica NV, priority 2015, published 2019).
